In EP0231622B1, “Inhibition of the 5-lipoxygenase pathway” (priority 1985, dated 1987):
Marks after values point to notes of the source that are not given here.

These compounds were tested on Polymorphonuclear Leukocytes (assay: Mouse Carrageenan Peritonitis (PMN infiltration)). Settings: Table 3; 100 mg/kg, p.o.
Assay type: in vivo, Balb/c mice
Source text: In the following Examples where mice were used, they were male Balb/c mice (20-28 g), and where rats were used, they were male Lewis rats (180-210 g). All mice and rats were obtained from Charles River Breeding Laboratories, Kingston, N.Y. Within a single experiment, mice and rats were sex and age matched.
The compounds of Formula (IA) were used either as the free base or in the appropriate salt form. Levamisole was used as the hydrochloride salt. The compounds were homogenized in 0.5% tragacanth. Compounds were administered by gavage at the indicated dose in a final volume of 10 ml/kg. Nordihydroguaiaretic acid (NDGA) was solubilized in dimethylacetamide and diluted with olive oil for subcutaneous administration.
Mice were pretreated with either the test compound or vehicle one hour before the intraperitoneal injection of a 1.0% carrageenan suspension in saline (0.2 ml/ mouse). Mice were sacrificed by cervical dislocation two hours after injection, and 3.0 ml of phosphate buffered saline, without Ca⁺⁺ or Mg⁺⁺, was injected into the peritoneum. Following massage, a 2.0 ml aliquot of the lavage fluid was removed, and the total cell count determined on a Coulter counter and differential cell count determined by microscopic examination of Giesma-stained slides.

Structure (SMILES)	% Change	PMN x 10⁻⁵/ml (mean ± S.D.) [x 10⁻⁵/ml]
c1ccc([C@H]2CN3CCSC3=N2)cc1 [Levamisole]	-37^b %	5.88 ± 2.70

Same assay, conditions: Table 3; 2 (mg Au/kg), p.o.

Structure (SMILES)	PMN x 10⁻⁵/ml (mean ± S.D.) [x 10⁻⁵/ml]
CC(=O)OC[C@H]1O[C@@H]([S-])[C@H](OC(C)=O)[C@@H](OC(C)=O)[C@@H]1OC(C)=O.CCP(CC)CC.[Au+] [Auranofin]	7.50 ± 1.57

These compounds were tested against T1, 5-Lipoxygenase (Rattus norvegicus, UniProt P12527) (assay: 5-HETE production by RBL-1 high speed supernatant). Settings: Table 8A; RBL-1 high speed supernatant.
T1 construct: The activities of these enzymes in extracts of RBL-1 cells were assayed; host or cells: RBL-1 cells, disrupted by nitrogen cavitation; 10,000 x g or 100,000 x g supernatant
T1 sequence (P12527 1-673): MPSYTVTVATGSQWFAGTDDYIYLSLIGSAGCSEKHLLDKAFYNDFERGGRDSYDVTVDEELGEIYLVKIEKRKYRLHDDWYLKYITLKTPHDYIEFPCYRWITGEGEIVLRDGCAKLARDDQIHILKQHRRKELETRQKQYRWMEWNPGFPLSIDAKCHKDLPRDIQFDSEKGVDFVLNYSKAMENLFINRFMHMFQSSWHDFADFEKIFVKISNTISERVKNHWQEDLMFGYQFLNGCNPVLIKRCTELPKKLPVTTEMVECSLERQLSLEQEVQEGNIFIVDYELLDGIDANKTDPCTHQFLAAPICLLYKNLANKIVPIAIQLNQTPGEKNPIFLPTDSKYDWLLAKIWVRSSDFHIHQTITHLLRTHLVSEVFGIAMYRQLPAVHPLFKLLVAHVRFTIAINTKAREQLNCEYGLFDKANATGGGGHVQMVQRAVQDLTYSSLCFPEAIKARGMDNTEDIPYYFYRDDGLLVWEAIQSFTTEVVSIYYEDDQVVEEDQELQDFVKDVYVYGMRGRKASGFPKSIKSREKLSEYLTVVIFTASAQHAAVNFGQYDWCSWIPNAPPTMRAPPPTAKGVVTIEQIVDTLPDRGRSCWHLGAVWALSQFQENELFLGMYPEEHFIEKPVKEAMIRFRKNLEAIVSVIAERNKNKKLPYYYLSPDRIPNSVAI
Assay type: biochemical
Experimental: (§1) For in vitro experiments, compounds were dissolved at appropriate concentrations in ethanol or DMSO (dimethylsulfoxide) (final concentration <1.0%) and then diluted to final concentrations using the buffers indicated in the text.
(§2) The activities of these enzymes in extracts of RBL-1 cells were assayed using the method of Jakschik and Lee, Nature, 287, 51-52 (1980). RBL-1 cells were obtained from the American Type Culture Collection (#CRL 1378) and were grown at 37°C (5% CO₂ in air) in spinner culture in MEM supplemented with 10% heat inactivated fetal calf serum. Harvested cells were washed with 50 mM sodium phosphate buffer, pH 7.0, containing 1 mM EDTA and 0.1% gelatin, resuspended in fresh buffer (5 x 10⁷ cells/ml) and disrupted by nitrogen cavitation using the Parr bomb at 750 psi for 10 min. The broken cell extract was then centrifuged at 10,000 x g for 20 minutes and the supernatant centrifuged at 100,000 x g for 60 minutes. Aliquots (0.25 mls) of the supernatant were preincubated with or without drugs for 10 min, after which 10 ul CaCl₂ (50 mM) was added and the reaction was initiated with 2.5 ul of 2.5 mM arachidonic acid-1-¹⁴C (final concentration was […]; specific activity 20,000 dpm/nmole). After incubation for 3 min at 37°C, the reaction was terminated by addition of 2 volumes (0.5 ml) ice cold acetone and the sample was allowed to deproteinize on ice for 10 min prior to centrifugation at 1,000 x g for 10 min. The deproteinized supernatant was adjusted to pH 3.5 with 2N formic acid and extracted with 2 volumes of ice cold ethyl acetate. The extracted samples were dried under argon, redissolved in ethyl acetate and applied to Whatman LK5D thin layer chromatography (TLC) plates which were developed using the A-9 solvent system [organic phase of ethyl acetate: 2,2,5-trimethylpentane:acetic acid: water (110:50:20:10)] described by Hamberg and Samuelsson, J. Biol. Chem., 241, 257-263 (1966). Arachidonic acid, 5-HETE, di-HETE and PGD₂ were quantified with a Berthold LB 2832 autoscanner.
(§3) The 5-lipoxygenase and LTA₄ synthetase activities were further studied under the following conditions. An additional centrifugation of the RBL-1 supernatant was run at 100,000 x g for 60 min, to remove the particulate cyclooxygenase activity. Sample incubation was done under conditions similar to those described above, i.e., 2 mM CaCl₂ and 25 uM arachidonic acid-1-¹⁴C, however, with an incubation time of 5 min at […]. Under these conditions, only the 5-lipoxygenase pathway metabolites were detectable. The 5-HETE and di-HETEs were formed at a linear rate, and […] amounts of the arachidonic acid-1-¹⁴C substrate were utilized.

Structure (SMILES)	IC50 [µM]
c1cc2c(cc1-c1nc3n(c1-c1ccc4c(c1)OCO4)CCS3)OCO2 [Compound 16]	3.8
O=S1(=O)CCn2c1nc(-c1ccc(F)cc1)c2-c1ccncc1 [Compound 29, 6-(4-fluorophenyl)-5-(4-pyridyl)-2,3-dihydroimidazo[2,1b]thiazole-1,1-dioxide]	100
[O-][S+]1CCn2c1nc(-c1ccc(F)cc1)c2-c1ccc(F)cc1 (stereo not shown) [Compound 30]	70
c1cc(N2CCCCC2)ccc1-c1nc2n(c1-c1ccc(N3CCCCC3)cc1)CCS2 [Compound 4, 5,6-bis(4-(1-piperidinyl)phenyl)-2,3-dihydroimidazo[2,1-b] thiazole]	1.2
c1cc(N2CCCC2)ccc1-c1nc2n(c1-c1ccc(N3CCCC3)cc1)CCS2 [Compound 3, 5,6-bis(4-(1-pyrrolidinyl)phenyl)-2,3-dihydroimidazo[2,1-b] thiazole]	0.23
c1cc(-c2nc3n(c2-c2ccc4c(c2)OCO4)CCS3)ccn1 [Compound 7, 6-(4-pyridyl)-5-(3,4-methylenedioxyphenyl)-2,3-dihydroimidazo[2,1-b]thiazole]	10
c1cc(-c2c(-c3ccc4c(c3)OCO4)nc3n2CCS3)ccn1 [Compound 5, 5-(4-pyridyl)-6-(3,4-methylenedioxyphenyl)-2,3-dihydroimidazo[2,1-b]thiazole]	10
Fc1ccc(-c2nc3n(c2-c2ccccn2)CCS3)cc1 [Compound 23, 5-(2-pyridinyl)-6-(4-fluorophenyl)-2,3-dihydroimidazo[2,1-b]thiazole]	90

Results, then the compound that gave them:

IC50 [µM]	Structure (SMILES)
5.6	COc1ccc(-c2nc3n(c2-c2ccc(OC)cc2)CCCS3)cc1 [Compound 20]
5.4	COc1ccc(-c2nc3n(c2-c2ccncc2)CCS3)cc1 [Compound 18]
3.9	COc1ccc(-c2nc3n(c2-c2ccc(OC)cc2)CCS3)cc1 [Compound 21]
0.1	CCNc1ccc(-c2nc3n(c2-c2ccc(NCC)cc2)CCS3)cc1 [Compound 17]
69	CC(=O)Nc1ccc(-c2nc3n(c2-c2ccncc2)CCS3)cc1 [Compound 38, 5-(4-pyridyl)-6-(4-acetamidophenyl)-2,3-dihydroimidazo [(2,1-b)]thiazole]
8	Nc1ccc(-c2nc3n(c2-c2ccc(N)cc2)CCS3)cc1 [Compound 45, 5,6-bis(4-aminophenyl)-2,3-dihydroimidazo[2,1-b]thiazole]

What follows are compounds tested against T2, 5-LO (Rattus norvegicus, UniProt P12527) (assay: di-HETE production by RBL-1 high speed supernatant). Settings: Table 9A; di-HETE production by RBL-1 high speed supernatant; read-out: 5-LO IC50.
T2 construct: The activities of these enzymes in extracts of RBL-1 cells were assayed; host or cells: RBL-1 cells, disrupted by nitrogen cavitation; 10,000 x g or 100,000 x g supernatant
T2 sequence (P12527 1-673): T1 sequence (P12527 1-673)
Assay type: biochemical
Experimental: as §1, §2, §3

Structure (SMILES)	IC50 [µM]
c1cc2c(cc1-c1nc3n(c1-c1ccc4c(c1)OCO4)CCS3)OCO2 [Compound 16]	1.5
O=S1(=O)CCn2c1nc(-c1ccc(F)cc1)c2-c1ccncc1 [Compound 29, 6-(4-fluorophenyl)-5-(4-pyridyl)-2,3-dihydroimidazo[2,1b]thiazole-1,1-dioxide]	> 100
[O-][S+]1CCn2c1nc(-c1ccc(F)cc1)c2-c1ccc(F)cc1 (stereo not shown) [Compound 30]	60
c1cc(N2CCCCC2)ccc1-c1nc2n(c1-c1ccc(N3CCCCC3)cc1)CCS2 [Compound 4, 5,6-bis(4-(1-piperidinyl)phenyl)-2,3-dihydroimidazo[2,1-b] thiazole]	0.6
c1cc(N2CCCC2)ccc1-c1nc2n(c1-c1ccc(N3CCCC3)cc1)CCS2 [Compound 3, 5,6-bis(4-(1-pyrrolidinyl)phenyl)-2,3-dihydroimidazo[2,1-b] thiazole]	0.1
c1cc(-c2nc3n(c2-c2ccc4c(c2)OCO4)CCS3)ccn1 [Compound 7, 6-(4-pyridyl)-5-(3,4-methylenedioxyphenyl)-2,3-dihydroimidazo[2,1-b]thiazole]	10
c1cc(-c2c(-c3ccc4c(c3)OCO4)nc3n2CCS3)ccn1 [Compound 5, 5-(4-pyridyl)-6-(3,4-methylenedioxyphenyl)-2,3-dihydroimidazo[2,1-b]thiazole]	10
Fc1ccc(-c2nc3n(c2-c2ccccn2)CCS3)cc1 [Compound 23, 5-(2-pyridinyl)-6-(4-fluorophenyl)-2,3-dihydroimidazo[2,1-b]thiazole]	42

Results, then the compound that gave them:

IC50 [µM]	Structure (SMILES)
5.6	COc1ccc(-c2nc3n(c2-c2ccc(OC)cc2)CCCS3)cc1 [Compound 20]
1.9	COc1ccc(-c2nc3n(c2-c2ccncc2)CCS3)cc1 [Compound 18]
2.8	COc1ccc(-c2nc3n(c2-c2ccc(OC)cc2)CCS3)cc1 [Compound 21]
0.1	CCNc1ccc(-c2nc3n(c2-c2ccc(NCC)cc2)CCS3)cc1 [Compound 17]
30	CC(=O)Nc1ccc(-c2nc3n(c2-c2ccncc2)CCS3)cc1 [Compound 38, 5-(4-pyridyl)-6-(4-acetamidophenyl)-2,3-dihydroimidazo [(2,1-b)]thiazole]
6	Nc1ccc(-c2nc3n(c2-c2ccc(N)cc2)CCS3)cc1 [Compound 45, 5,6-bis(4-aminophenyl)-2,3-dihydroimidazo[2,1-b]thiazole]
